Assays:
Format in all cases: in vivo
Boophilus microplus = Boophilus microplus injection test (BOOPMI Injection); settings: Rhipicephalus microplus, 168 h, injection into adult engorged female ticks, egg deposition after 7 days, read-out: activity (efficacy, infertile eggs); for pest or weed control at 0.004 mg: 4 μg/animal; for pest or weed control at 0.02 mg: 20 μg/animal
Protocol: Boophilus microplus—Injection Test (BOOPMI Injection)
(§1) Solvent: dimethyl sulfoxide
To produce a suitable preparation of active compound, 10 mg of active compound are dissolved in 0.5 mL solvent, and the concentrate is diluted with solvent to the desired concentration.
Five adult engorged female ticks (Boophilus microplus) are injected with 1 μL compound solution into the abdomen. The ticks are transferred into replica plates and incubated in a climate chamber.
After 7 days egg deposition of fertile eggs is monitored. Eggs where fertility is not visible are stored in a climate chamber till hatching after about 42 days. An efficacy of 100% means all eggs are infertile; 0% means all eggs are fertile.

Ctenocephalides felis [1] = experiment: Ctenocephalides felis oral test (CTECFE); settings: 48 h, 100 ppm in cattle blood, after 2 days
Protocol: Ctenocephalides felis—Oral Test (CTECFE)
as §1
To produce a suitable preparation of active compound, 10 mg of active compound are dissolved in 0.5 ml solvent, and the concentrate is diluted with cattle blood to the desired concentration.
Approximately 20 adult unfed cat fleas (Ctenocephalides felis) are placed in flea chambers. The blood chamber, sealed with parafilm on the bottom, are filled with cattle blood supplied with compound solution and placed on the gauze covered top of the flea chamber, so that the fleas are able to suck the blood. The blood chamber is heated to 37° C. whereas the flea chamber is kept at room temperature.
After 2 days mortality in % is determined. 100% means all the fleas have been killed; 0% means none of the fleas have been killed.

Spodoptera frugiperda = Spodoptera frugiperda spray test; settings: in Zea mays, 168 h, read-out: activity (mortality)
Protocol: Spodoptera frugiperda—Spray Test
Solvent: 78.0 parts by weight acetone • 1.5 parts by weight dimethylformamide
(§2) Emulsifier: alkylarylpolyglycol ether
(§3) To produce a suitable preparation of active compound, 1 part by weight of active compound is mixed with the stated amount of solvents and is diluted with water, containing an emulsifier concentration of 1000 ppm, to the desired concentration. Further test concentrations are prepared by dilution with emulsifier containing water.
Maize (Zea mays) leaf sections are sprayed with a preparation of the active ingredient of the desired concentration. Once dry, the leaf sections are infested with fall armyworm larvae (Spodoptera frugiperda).
After 7 days mortality in % is determined. 100% means all caterpillars have been killed and 0% means none of the caterpillars have been killed.

Diabrotica balteata = Diabrotica balteata spray test; settings: 168 h, wheat seeds, after 7 days, read-out: activity (efficacy, seedlings grown); for pest or weed control at 160 µg/disc, 500 g/ha: 500 g/ha (=160 μg/well)
Protocol: Diabrotica balteata—Spray Test
Solvent: 78.0 parts by weight of acetone • • 1.5 parts by weight of dimethylformamide
as §2
as §3, with “solvent,” for “solvents”, “and the concentrate” for “and”
Soaked wheat seeds (Triticum aestivum) are placed in a multiple well plate filled with agar and some water and are incubated for 1 day to germinate (5 seeds per well). The germinated wheat seeds are sprayed with a test solution containing the desired concentration of the active ingredient. Afterwards each unit is infected with 10-20 larvae of the banded cucumber beetle (Diabrotica balteata).
After 7 days efficacy in % is determined. 100% means all the seedlings have grown up like in the untreated, uninfected control; 0% means none of the seedlings have grown.

Ctenocephalides felis [2] = experiment: Ctenocephalides felis in-vitro contact test, adult cat flea; settings: 5 μg/cm^2 (=500 g/ha), after 48 hours, read-out: activity (efficacy, fleas dead or moribund)
Protocol: Ctenocephalides felis—in-Vitro Contact Tests Adult Cat Flea
(§4) 9 mg compound is solved in 1 ml acetone and diluted with acetone to the desired concentration. 250 of the test solution is filled in 25 ml glass test tubes and homogeneously distributed on the inner walls by rotation and tilting on a shaking device (2 h at 30 rpm). With a compound concentration of 900 ppm, an inner surface of 44.7 cm^2 and a homogeneous distribution, a dose of 5 μg/cm^2 is achieved.
(§5) After the solvent has evaporated, each test tube is filled with 5-10 adult cat fleas (Ctenocephalides felis), closed with a perforated lid and incubated in a lying position at room temperature and relative humidity. After 48 hours efficacy is determined. The fleas are patted on the ground of the tubes and are incubated on a heating plate at 45-50° C. for at most 5 minutes Immotile or uncoordinated moving fleas, which are not able to escape the heat by climbing upwards, are marked as dead or moribund.
An efficacy of 100% means all fleas are dead or moribund; 0% means no fleas are dead or moribund.

[3] = system: Rhipicephalus microplus (strain Parkhurst, resistant against synthetic pyrethroids); experiment: Rhipicephalus microplus in-vitro contact test, larval cattle tick (BOOPMI Contact); settings: 5 μg/cm^2 (=500 g/ha), after 48 hours, read-out: activity (efficacy, larvae dead or moribund)
Protocol: Rhipicephalus microplus—in-Vitro Contact Tests Larval Cattle Tick (Strain Parkhurst, Resistant Against Synthetic Pyrethroids) (BOOPMI Contact)
as §4, with “250 μL” for “250”
After the solvent has evaporated, each test tube is filled with 20-50 cattle tick larvae (Rhipicephalus microplus), closed with a perforated lid and incubated in a horizontal position at 85% relative humidity and 27° C. in an incubator. After 48 hours efficacy is determined. The larvae are patted on the ground of the tubes and negative geotactic behaviour is recorded.
An efficacy of 100% means all larvae are dead or moribund; 0% means no larvae are dead or moribund.

Rhipicephalus sanguineus = Rhipicephalus sanguineus in-vitro contact test, adult brown dog ticks (RHIPSA Contact); settings: 5 μg/cm^2 (=500 g/ha), after 48 hours, read-out: activity (efficacy, ticks dead or moribund)
Protocol: Rhipicephalus sanguineus—in-Vitro Contact Tests with Adult Brown Dog Ticks (RHIPSA Contact)
as §4, with “250 μl_,” for “250”
as §5, with “brown dog ticks (Rhipicephalus sanguineus),” for “cat fleas (Ctenocephalides felis),”, “ticks” for “fleas”, “ticks,” for “fleas,”
An efficacy of 100% means all ticks are dead or moribund; 0% means no ticks are dead or moribund.

Row | Structure (SMILES) | pest or weed control at 0.004 mg (Boophilus microplus) | pest or weed control at 0.02 mg (Boophilus microplus) | mortality at 100 ppm (Ctenocephalides felis [1]) | mortality at 500 g/ha (Spodoptera frugiperda) | pest or weed control at 100 g/ha (Diabrotica balteata) | pest or weed control at 160 µg/disc, 500 g/ha (Diabrotica balteata) | pest or weed control at 5 µg/cm2, 5 µg/cm2 (Ctenocephalides felis [2]) | pest or weed control at 5 µg/cm2 [3] | pest or weed control at 5 µg/cm2, 5 µg/cm2 (Rhipicephalus sanguineus) | mortality at 100 g/ha (Spodoptera frugiperda)
1 | Cc1nc([C@H](C)Nc2nc3cc(C(F)(F)F)cc(Cl)c3o2)n(-c2ncccn2)n1 [Example I-014] | 100% | 100% | 100% | 100% | 100% | 100% | 80% | 100% | – | –
2 | Cc1nc([C@H](C)Nc2nc3cc(C(F)(F)F)c(Cl)cc3o2)n(-c2ccc(C#N)cn2)n1 [Example I-019] | – | 100% | – | 100% | 100% | 100% | 100% | 100% | – | –
3 | C[C@H](Nc1nc2cc(C(F)(F)F)c(Cl)cc2o1)c1ncnn1-c1ccc(C(F)(F)F)cn1 [Example I-031] | – | – | – | – | – | – | – | – | 80% | –
4 | C[C@H](Nc1nc2cc(C(F)(F)F)cc(Cl)c2o1)c1ncnn1-c1ncc(C#N)cn1 [Example I-042, 2-{5-[(1S)-1-{[7-Chlor-5-(trifluormethyl)-1,3-benzoxazol-2-yl]amino}ethyl]-1H-1,2,4-triazol-1-yl}pyrimidin-5-carbonitril] | – | – | – | – | – | – | 90% | 90% | – | –
5 | C[C@H](Nc1nc2cc(C(F)(F)F)cc(Cl)c2o1)c1ncnn1-c1cc(C#N)ccn1 [Example I-052, 2-{5-[(1S)-1-{[7-Chlor-5-(trifluormethyl)-1,3-benzoxazol-2-yl]amino}ethyl]-1H-1,2,4-triazol-1-yl}isonicotinonitril] | 100% | 100% | – | 100% | – | 100% | 100% | – | – | –
6 | C[C@H](Nc1nc2cc(C(F)(F)F)c(Cl)cc2o1)c1ncnn1-c1cnc(C#N)cn1 [Example I-057, 5-{5-[(1S)-1-{[6-Chlor-5-(trifluormethyl)-1,3-benzoxazol-2-yl]amino}ethyl]-1H-1,2,4-triazol-1-yl}pyrazin-2-carbonitril] | 80% | – | 100% | – | – | – | 100% | 100% | – | 100%
7 | COc1cnc(-n2ncnc2[C@H](C)Nc2nc3cc(C(F)(F)F)c(Cl)cc3o2)nc1 [Example I-058, 6-Chlor-N-{(1S)-1-[1-(5-methoxypyrimidin-2-yl)-1H-1,2,4-triazol-5-yl]ethyl}-5-(trifluormethyl)-1,3-benzoxazol-2-amin] | – | – | – | – | 100% | – | 100% | 100% | – | 83%
8 | CC(C)c1cc(Cl)c2oc(N[C@@H](C)c3ncnn3-c3ccncn3)nc2c1 [Example I-066, 7-Chlor-5-isopropyl-N-{(1S)-1-[1-(pyrimidin-4-yl)-1H-1,2,4-triazol-5-yl]ethyl}-1,3-benzoxazol-2-amin] | 100% | 100% | – | – | – | 100% | – | 90% | 80% | –
9 | C[C@H](Nc1nc2cc(OC(F)(F)F)cc(Cl)c2o1)c1ncnn1-c1ncccn1 [Example I-070, 7-Chlor-N-{(1S)-1-[1-(pyrimidin-2-yl)-1H-1,2,4-triazol-5-yl]ethyl}-5-(triflourmethoxy)-1,3-benzoxazol-2-amin] | – | – | 100% | – | 100% | – | 90% | – | – | 100%
10 | C[C@H](Nc1nc2cc(OC(F)F)cc(Cl)c2o1)c1ncnn1-c1ncc(Br)cn1 [Example I-071, N-{(1S)-1-[1-(5-Brompyrimidin-2-yl)-1H-1,2,4-triazol-5-yl]ethyl}-7-chlor-5-(difluormethoxy)-1,3-benzoxazol-2-amin] | – | – | 100% | – | 100% | – | 90% | – | – | –
11 | C[C@H](Nc1nc2cc(OC(F)F)cc(Cl)c2o1)c1ncnn1-c1ncccn1 [Example I-074, 7-Chlor-5-(difluormethoxy)-N-{(1S)-1-[1-(pyrimidin-2-yl)-1H-1,2,4-triazol-5-yl]ethyl}-1,3-benzoxazol-2-amin] | 80% | – | 100% | – | – | – | 100% | – | – | –
12 | C[C@H](Nc1nc2cc(OC(F)(F)F)cc(Cl)c2o1)c1ncnn1-c1ncc(Cl)cn1 [Example I-079, 7-Chlor-N-{(1S)-1-[1-(5-chlorpyrimidin-2-yl)-1H-1,2,4-triazol-5-yl]ethyl}-5-(trifluormethoxy)-1,3-benzoxazol-2-amin] | 80% | – | 100% | – | 100% | – | 100% | – | – | –
13 | C[C@H](Nc1nc2cc(C(F)(F)F)c(Br)cn2n1)c1ncnn1-c1ncccn1 [Example I-094, 6-bromo-N-{(1S)-1-[1-(pyrimidin-2-yl)-1H-1,2,4-triazol-5-yl]ethyl}-7-(trifluoromethyl)[1,2,4]triazolo[1,5-a]pyridin-2-amine] | 100% | 100% | 100% | – | 100% | – | 100% | – | – | –
